Assay: Assay of SAP and AA2G by HPLC (ascorbic acid derivative loss)
Format: physicochemical
Settings: in FL#1, HPLC
Description: The amount of ascorbic acid derivative content in a composition can be determined using a wide range of techniques including, but not limited to: titrimetric, spectrophotometric, electrochemical, fluorimetric, enzymatic and chromatographic. Methods for determining ascorbic acid derivative content in a topical composition can be complicated/confounded by the presence of excipients or other antioxidant agents (e.g., agents for stabilizing Vitamin C), as well as degradation products. Of the above-listed methods, high performance liquid chromatography may be preferred. See, A M Maia et al., “Validation of HPLC stability-indicating method for Vitamin C in semisolid pharmaceutical/cosmetic preparations . . . ” Talanta Vol. 71, pp. 639-643 (2007).
In addition, an assay of SAP and AA2G were analyzed by HPLC.

% Loss @25° C. (4 weeks) (25° C.): −1.00%
% Loss @37° C. (4 weeks) (37° C.): −1.00%
% Loss @40° C. (4 weeks) (40° C.): −1.00%
% Loss @45° C. (4 weeks) (45° C.): 0%
Compound: O=C1O[C@H]([C@@H](O)CO)C(O)=C1O[C@H]1O[C@H](CO)[C@@H](O)[C@H](O)[C@H]1O [AA2G, ascorbyl glucoside]

From patent publication US20250186325A1, “COMPOSITIONS OF ASCORBIC ACID SALTS” (SHISEIDO COMPANY, LTD., priority 2023, published 2025)
